{
  "source": "patent US20220401381A1",
  "about": "“PERIPHERALLY ACTING CANNABIDIOL (CBD)-CONTAINING COMPOUNDS AND USES THEREOF FOR ENHANCING FEMALE SEXUAL FUNCTION OR TREATING FEMALE SEXUAL DISORDERS” (Vella Bioscience, Inc., priority 2019, published 2022)",
  "key": {"[1]": {"test_system": "rat vaginal smooth muscle tissue (intact/sham rats)", "assay": "EFS-induced contraction of vaginal strips from intact/sham rats, isolated organ bath, isometric tension", "text": "(§1) The following in vitro methodology was utilized to examine the concentration-dependent response of rat vaginal tissue, both proximal and distal, to CBD following contraction by electrical field stimulation (similar to efferent neurostimulation in vivo)\n(§2) Female rats either intact (n=6) or bilaterally oophorectomized (OVX) (n=6 rats); the animals were euthanized 6 weeks post OVX and vagina dissected. Then, the vagina was cut into 2 halves, proximal and distal, and 4 strips max per region cut in circular direction were prepared and mounted as shown in FIG. 1.\n(§3) The strips were excised from the tissue samples and connected to force transducers for isometric tension recording. Organ baths were filled with Krebs buffer maintained at 37° C. and bubbled with 95% O2 and 5% CO2, pH 7.4.\n(§4) Female rats without (n=6) prior bilateral oophorectomies were euthanized and the proximal and distal vaginal tissue was harvested and suspended in a classic organ bath infused at a physiological temperature, pH, and oxygen level. […] This was also true regardless of whether the tissue was from the proximal or distal vaginal tissue (FIG. 2(A-E))."}, "[2]": {"test_system": "rat vaginal smooth muscle tissue (OVX rats)", "assay": "EFS-induced contraction of vaginal strips from oophorectomized (OVX) rats, isolated organ bath, isometric tension", "text": "as §1, §2, §3\nas §4, with “with” for “without”, “3(A-E)).” for “2(A-E)).”"}, "[3]": {"settings": "subcutaneous injection 45 minutes prior to sexual activity; cited from earlier work"}},
  "note": "“Also recorded” adds a separate entry of the source.",
  "data": [
    {"smiles": "C=C(C)[C@@H]1CCC(C)=C[C@H]1c1c(O)cc(CCCCC)cc1O", "note": "[CBD, (−)-trans-cannabidiol]", "values": [
      {"measurement": "relaxation (inhibition of EFS-induced contraction) of vaginal strips", "setting": "[1]; intact/sham (non-oophorectomized) rats, proximal or distal tissue, CBD 1, 10 and 100 μg/ml, EFS 1 Hz to 48 Hz, vs vehicle", "result": "dramatic and significant dose-response relaxation; also recorded: significant relaxant effect"},
      {"measurement": "relaxant effect on distal vaginal smooth muscle tissue", "setting": "[1]; intact/sham rat, distal, FIG. 4B", "result": "statistically significant, unexpected, peripheral, dose-dependent pharmacological relaxant effect"},
      {"measurement": "relaxant effect on proximal vaginal smooth muscle tissue", "setting": "[1]; intact/sham rat, proximal, FIG. 4A", "result": "statistically significant, unexpected, peripheral, dose-dependent pharmacological relaxant effect"},
      {"measurement": "relaxant effect on distal vaginal smooth muscle tissue", "setting": "[2]; OVX rat, distal, FIG. 5B", "result": "statistically significant, unexpected, peripheral, dose-dependent pharmacological relaxant effect"},
      {"measurement": "relaxant effect on proximal vaginal smooth muscle tissue", "setting": "[2]; OVX rat, proximal, FIG. 5A", "result": "statistically significant, unexpected, peripheral, dose-dependent pharmacological relaxant effect"},
      {"measurement": "relaxation (inhibition of EFS-induced contraction) of vaginal strips", "setting": "[2]; oophorectomized (OVX) rats, proximal or distal tissue, CBD 1, 10 and 100 μg/ml, EFS 1 Hz to 48 Hz, vs vehicle", "result": "dramatic and significant dose-response relaxation; also recorded: significant relaxant effect"}
    ]},
    {"smiles": "CCCC[C@H](NC(C)=O)C(=O)N[C@H]1CC(=O)NCCCC[C@@H](C(=O)O)NC(=O)[C@H](Cc2c[nH]c3ccccc23)NC(=O)[C@H](CCCN=C(N)N)NC(=O)[C@@H](Cc2ccccc2)NC(=O)[C@H](Cc2cnc[nH]2)NC1=O", "note": "[bremelanotide]", "values": [
      {"measurement": "side-effect: nausea, incidence", "setting": "[3]", "result": 40, "unit": "%"}
    ]}
  ]
}
